Source: publication PMC9228641 (Journal of medicinal chemistry, 2021)
Where two headings read alike, the source gives them in different places.

How the values were obtained:
[1] = system: HCV replicon D168A variant
[2] = system: HCV replicon D168A variant; assay: microbe, parasite or virus in culture; conditions: Hepatitis C virus, Huh-7, 96 h, read-out: EC50 against D168A variant
[3] = system: HCV replicons; assay: Replicon assays, variant not given; assay type: cell-based, Hepatitis C virus; conditions: more potent than 38
[4] = system: GT-3a NS3/4A protease; assay: Enzyme inhibition assay; assay type: biochemical, Hepatitis C virus; conditions: relative to 12
[5] = system: HCV GT-3a replicon, S52/SG-Feo SHI; conditions: relative to 12
[6] = system: WT HCV Con1 (GT-1b) reporter replicon containing the H77 (GT-1a) NS3 protease region; assay: Antiviral replicon assay, WT HCV; assay type: cell-based, Hepatitis C virus; conditions: for fold improvement in antiviral activity against WT HCV: more active, relative to 36
[7] = less active, compared to the (S)-stereoisomer 30

## CCC(C)(C)OC(=O)N[C@H]1CCCCCC=C[C@@H]2C[C@@]2(C(=O)NS(=O)(=O)C2(C)CC2)NC(=O)[C@@H]2C[C@@H](Oc3nc4ccc(OC)cc4nc3C(F)(F)F)CN2C1=O (stereo in doubt) [Compound 28, tert-Pentyl ((2R,6S,13aS,14aR,16aS,Z)-2-((6-methoxy-3-(trifluoromethyl)quinoxalin-2-yl)oxy)-14a-(((1-methylcyclopropyl)sulfonyl)carbamoyl)-5,16-dioxo-1,2,3,5,6,7,8,9,10,11,13a,14,14a,15,16,16a-hexadecahydrocyclopropa[e]pyrrolo[1,2-a][1,4]diazacyclopentadecin-6-yl)carbamate]
[1]; lower, relative to 3
  fold lower antiviral activity against the D168A variant: 2 fold

## COc1ccc2nc(C)c(O[C@@H]3C[C@H]4C(=O)N[C@]5(C(=O)NS(=O)(=O)C6(C)CC6)C[C@H]5/C=C/CCCCC[C@H](NC(=O)OC5CCC5)C(=O)N4C3)nc2c1 [Compound 21]
[2]
  EC50: < 5 nM

## COc1ccc2nc(C)c(O[C@@H]3C[C@H]4C(=O)N[C@]5(C(=O)NS(=O)(=O)C6(C)CC6)C[C@H]5C=CCCCCC[C@H](NC(=O)O[C@H](C)C(F)(F)F)C(=O)N4C3)nc2c1 (stereo in doubt) [Compound 14, (R)-1,1,1-Trifluoropropan-2-yl ((2R,6S,13aS,14aR,16aS,Z)-2-((7-methoxy-3-methylquinoxalin-2-yl)oxy)-14a-(((1-methylcyclopropyl)sulfonyl)carbamoyl)-5,16-dioxo-1,2,3,5,6,7,8,9,10,11,13a,14,14a,15,16,16a-hexadecahydrocyclopropa[e]pyrrolo[1,2-a][1,4]diazacyclopentadecin-6-yl)carbamate]
[1]; relative to 13
  fold better potency against the D168A variant: 2 fold

## COc1ccc2nc(O[C@@H]3C[C@H]4C(=O)N[C@]5(C(=O)NS(=O)(=O)C6(C)CC6)C[C@H]5C=CCCCCC[C@H](NC(=O)O[C@H](C)C(F)(F)F)C(=O)N4C3)c(C(F)(F)F)nc2c1 (stereo in doubt) [Compound 39, (R)-1,1,1-Trifluoropropan-2-yl ((2R,6S,13aS,14aR,16aS,Z)-2-((6-methoxy-3-(trifluoromethyl)quinoxalin-2-yl)oxy)-14a-(((1-methylcyclopropyl)sulfonyl)carbamoyl)-5,16-dioxo-1,2,3,5,6,7,8,9,10,11,13a,14,14a,15,16,16a-hexadecahydrocyclopropa[e]pyrrolo[1,2-a][1,4]diazacyclopentadecin-6-yl)carbamate]
[3]
  fold more potent in replicon assays: at least 2 fold

## COc1ccc2nc(C)c(O[C@@H]3C[C@H]4C(=O)N[C@]5(C(=O)NS(=O)(=O)C6(C)CC6)C[C@H]5/C=C/CCCCC[C@H](NC(=O)OC5C[C@@H]6C[C@@H]6C5)C(=O)N4C3)nc2c1 (some centres unmarked) [Compound 20]
[2]
  EC50: 0.5 nM

## COc1ccc2nc(C)c(O[C@@H]3C[C@H]4C(=O)N[C@]5(C(=O)NS(=O)(=O)C6(C)CC6)C[C@H]5C=CCCCCC[C@H](NC(=O)OC5(C(F)(F)F)CCCC5)C(=O)N4C3)nc2c1 (stereo in doubt) [Compound 24, 1-(Trifluoromethyl)cyclopentyl ((2R,6S,13aS,14aR,16aS,Z)-2-((7-methoxy-3-methylquinoxalin-2-yl)oxy)-14a-(((1-methylcyclopropyl)sulfonyl)carbamoyl)-5,16-dioxo-1,2,3,5,6,7,8,9,10,11,13a,14,14a,15,16,16a-hexadecahydrocyclopropa[e]pyrrolo[1,2-a][1,4]diazacyclopentadecin-6-yl)carbamate]
[1]; improvement, relative to the parent 18
  fold improvement in potency against the D168A variant, replicon assay: 2 fold

## COc1ccc2nc(C)c(O[C@@H]3C[C@H]4C(=O)N[C@]5(C(=O)NS(=O)(=O)C6(C)CC6)C[C@H]5C=CCCCCC[C@H](NC(=O)OCC5(C(F)(F)F)CC5)C(=O)N4C3)nc2c1 (stereo in doubt) [Compound 15, (1-(Trifluoromethyl)cyclopropyl)methyl ((2R,6S,13aS,14aR,16aS,Z)-2-((7-methoxy-3-methylquinoxalin-2-yl)oxy)-14a-(((1-methylcyclopropyl)sulfonyl)carbamoyl)-5,16-dioxo-1,2,3,5,6,7,8,9,10,11,13a,14,14a,15,16,16a-hexadecahydrocyclopropa[e]pyrrolo[1,2-a][1,4]diazacyclopentadecin-6-yl)carbamate]
[4]
  fold lower activity against GT-3a, enzyme assay: 2 fold
[5]
  fold lower activity against GT-3a, replicon assay: 2 fold

## COc1ccc2nc(O[C@@H]3C[C@H]4C(=O)N[C@]5(C(=O)NS(=O)(=O)C6(C)CC6)C[C@H]5C=CCCCCC[C@H](NC(=O)OCC5(C(F)(F)F)CC5)C(=O)N4C3)c(C(F)(F)F)nc2c1 (stereo in doubt) [Compound 40, (1-(Trifluoromethyl)cyclopropyl)methyl ((2R,6S,13aS,14aR,16aS,Z)-2-((6-methoxy-3-(trifluoromethyl)quinoxalin-2-yl)oxy)-14a-(((1-methylcyclopropyl)sulfonyl)carbamoyl)-5,16-dioxo-1,2,3,5,6,7,8,9,10,11,13a,14,14a,15,16,16a-hexadecahydrocyclopropa[e]pyrrolo[1,2-a][1,4]diazacyclopentadecin-6-yl)carbamate]
[6]
  fold improvement in antiviral activity against WT HCV: 2 fold
[1]; more active, relative to 36
  fold more active against the D168A variant: 2 fold

## COc1ccc2nc(O[C@@H]3C[C@H]4C(=O)N[C@]5(C(=O)NS(=O)(=O)C6(C)CC6)C[C@H]5C=CCCCCC[C@H](NC(=O)OCC5(C)CC5(F)F)C(=O)N4C3)c(C(F)(F)F)nc2c1 (stereo in doubt) [Compound 41, (2,2-Difluoro-1-methylcyclopropyl)methyl ((2R,6S,13aS,14aR,16aS,Z)-2-((6-methoxy-3-(trifluoromethyl)quinoxalin-2-yl)oxy)-14a-(((1-methylcyclopropyl)sulfonyl)carbamoyl)-5,16-dioxo-1,2,3,5,6,7,8,9,10,11,13a,14,14a,15,16,16a-hexadecahydrocyclopropa[e]pyrrolo[1,2-a][1,4]diazacyclopentadecin-6-yl)carbamate]
[6]
  fold improvement in antiviral activity against WT HCV: 2 fold

## COc1ccc2nc(C)c(O[C@@H]3C[C@H]4C(=O)N[C@]5(C(=O)NS(=O)(=O)C6(C)CC6)C[C@H]5C=CCCCCC[C@H](NC(=O)OC(C)(C)C(F)(F)F)C(=O)N4C3)nc2c1 (stereo in doubt) [Compound 12, 1,1,1-Trifluoro-2-methylpropan-2-yl ((2R,6S,13aS,14aR,16aS,Z)-2-((7-methoxy-3-methylquinoxalin-2-yl)oxy)-14a-(((1-methylcyclopropyl)sulfonyl)carbamoyl)-5,16-dioxo-1,2,3,5,6,7,8,9,10,11,13a,14,14a,15,16,16a-hexadecahydrocyclopropa[e]pyrrolo[1,2-a][1,4]diazacyclopentadecin-6-yl)carbamate]
[6]; Hepatitis C virus, GT1A|GT1B, Huh-7, 96 h, read-out: EC50 against WT HCV
  EC50: < 5 nM
[2]
  EC50: < 5 nM

## COc1ccc2nc(C)c(O[C@@H]3C[C@H]4C(=O)N[C@]5(C(=O)NS(=O)(=O)C6(C)CC6)C[C@H]5C=CCCCCC[C@H](NC(=O)O[C@@H](C)C(F)(F)F)C(=O)N4C3)nc2c1 (stereo in doubt) [Compound 13, (S)-1,1,1-Trifluoropropan-2-yl ((2R,6S,13aS,14aR,16aS,Z)-2-((7-methoxy-3-methylquinoxalin-2-yl)oxy)-14a-(((1-methylcyclopropyl)sulfonyl)carbamoyl)-5,16-dioxo1,2,3,5,6,7,8,9,10,11,13a,14,14a,15,16,16a-hexadecahydrocyclopropa[e]pyrrolo[1,2-a][1,4]diazacyclopentadecin-6-yl)carbamate]
[2]
  EC50: < 10 nM

## COc1ccc2nc(O[C@@H]3C[C@H]4C(=O)N[C@]5(C(=O)NS(=O)(=O)C6(C)CC6)C[C@H]5C=CCCCCC[C@H](NC(=O)O[C@H](C)C(C)C)C(=O)N4C3)c(C(F)(F)F)nc2c1 (stereo in doubt) [Compound 31, (R)-3-Methylbutan-2-yl ((2R,6S,13aS,14aR,16aS,Z)-2-((6-methoxy-3-(trifluoromethyl)quinoxalin-2-yl)oxy)-14a-(((1-methylcyclopropyl)sulfonyl)carbamoyl)-5,16-dioxo-1,2,3,5,6,7,8,9,10,11,13a,14,14a,15,16,16a-hexadecahydrocyclopropa[e]pyrrolo[1,2-a][1,4]diazacyclopentadecin-6-yl)carbamate]
[6]; [7]
  fold less active against WT replicon: 2 fold
[1]; [7]
  fold less active against D168A replicon: 2 fold

## COc1ccc2nc(O[C@@H]3C[C@H]4C(=O)N[C@]5(C(=O)NS(=O)(=O)C6(C)CC6)C[C@H]5C=CCCCCC[C@H](NC(=O)OC5(C(F)(F)F)CCCC5)C(=O)N4C3)c(C(F)(F)F)nc2c1 (stereo in doubt) [Compound 48, 1-(Trifluoromethyl)cyclopentyl ((2R,6S,13aS,14aR,16aS,Z)-2-((6-methoxy-3-(trifluoromethyl)quinoxalin-2-yl)oxy)-14a-(((1-methylcyclopropyl)sulfonyl)carbamoyl)-5,16-dioxo-1,2,3,5,6,7,8,9,10,11,13a,14,14a,15,16,16a-hexadecahydrocyclopropa[e]pyrrolo[1,2-a][1,4]diazacyclopentadecin-6-yl)carbamate]
[1]; compared to 42
  fold better potency against the D168A variant: 3 fold
